In publication PMC8583782, “Screening for the Active Anti-Inflammatory and Antioxidant Polyphenols of Gaultheria procumbens and Their Application for Standardisation: From Identification through Cellular Studies to Quantitative Determination” (International Journal of Molecular Sciences, 2021):
Read-outs that look alike come from different tables or passages of the source.

Biological target: T1, HYAL (bovine testis hyaluronidase) (Bos taurus, UniProt Q2YDK3)
T1 construct: gene SPAM1; commercial native preparation from bovine testis (Merck)
T1 sequence (Q2YDK3 36-553): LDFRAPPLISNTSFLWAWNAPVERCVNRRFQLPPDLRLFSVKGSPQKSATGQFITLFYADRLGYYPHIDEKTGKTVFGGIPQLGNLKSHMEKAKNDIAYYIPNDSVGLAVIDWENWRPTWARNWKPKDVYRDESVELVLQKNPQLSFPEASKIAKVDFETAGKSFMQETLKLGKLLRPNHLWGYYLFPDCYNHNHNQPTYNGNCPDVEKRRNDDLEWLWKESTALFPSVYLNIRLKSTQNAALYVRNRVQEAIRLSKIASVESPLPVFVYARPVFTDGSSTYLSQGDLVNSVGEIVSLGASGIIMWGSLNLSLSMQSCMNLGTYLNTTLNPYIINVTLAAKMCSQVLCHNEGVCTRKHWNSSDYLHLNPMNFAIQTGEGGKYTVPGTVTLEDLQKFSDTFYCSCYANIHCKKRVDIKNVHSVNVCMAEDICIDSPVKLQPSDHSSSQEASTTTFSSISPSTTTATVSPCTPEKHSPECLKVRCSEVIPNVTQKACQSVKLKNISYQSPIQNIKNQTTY
Test: hyaluronidase inhibition assay
Type: biochemical
Conditions: read-out: Anti-Inflammatory Activity / HYAL / IC50 (μM) ^a
Description: hyaluronidase inhibition assay on HYAL (bovine testis hyaluronidase)

IC50 (tested at […]) [µM]	IC50 (positive control) [µM]	Compound
98.2 ± 4.41	–	O=C(O)[C@H]1O[C@@H](Oc2c(-c3ccc(O)c(O)c3)oc3cc(O)cc(O)c3c2=O)[C@H](O)[C@@H](O)[C@@H]1O [MQ, quercetin 3-O-β-D-glucuronopyranoside]
–	36.1 ± 2.68	C[C@@H]1C[C@H]2[C@@H]3CCC4=CC(=O)C=C[C@]4(C)[C@@]3(F)[C@@H](O)C[C@]2(C)[C@@]1(O)C(=O)CO [DEX, dexamethasone, reference compound]
37.4 ± 1.78	–	Oc1cc(O)c2c(c1)O[C@H](c1ccc(O)c(O)c1)[C@H](O)[C@H]2c1c(O)cc(O)c2c1O[C@H](c1ccc(O)c(O)c1)[C@H](O)C2 [PB2, epicatechin-(4β→8)-epicatechin]
64 ± 2.87	–	COC(=O)c1ccccc1O[C@@H]1O[C@H](CO[C@@H]2OC[C@@H](O)[C@H](O)[C@H]2O)[C@@H](O)[C@H](O)[C@H]1O [GT, methyl salicylate 2-O-β-D-xylopyranosyl-(1→6)-β-D-glucuronopyranoside]
–	35.7 ± 5.34	COc1ccc2c(c1)c(CC(=O)O)c(C)n2C(=O)c1ccc(Cl)cc1 [IND, indomethacin, reference compound]
98.1 ± 2.31	–	O=C(O)[C@H]1O[C@@H](Oc2c(-c3ccc(O)c(O)c3)oc3cc(O)cc(O)c3c2=O)[C@H](O[C@@H]2OC[C@@H](O)[C@H](O)[C@H]2O)[C@@H](O)[C@@H]1O [DGQ, quercetin 3-O-β-D-xylopyranosyl-(1→2)-β-D-glucuronopyranoside]
80.7 ± 3.42	–	O=C(/C=C/c1ccc(O)c(O)c1)O[C@@H]1C[C@](O)(C(=O)O)C[C@@H](O)[C@H]1O [CHA, 5-O-caffeoylquinic acid]
102 ± 6.09	–	O=c1c(O)c(-c2ccc(O)c(O)c2)oc2cc(O)cc(O)c12 [QU, quercetin]
81.9 ± 3.96	–	Oc1cc(O)c2c(c1)O[C@H](c1ccc(O)c(O)c1)[C@H](O)C2 [ECA, (−)-epicatechin]
